Measurements published in ChEMBL document CHEMBL4819143, “Discovery of JMJD7 inhibitors with the aid of virtual screening and bioactivity evaluation” (Bioorg Med Chem Lett, 2021).

Assays:
[1] = system: T47D; experiment: Cytotoxicity against human T47D cells assessed as growth inhibition measured after 72 hrs by MTT assay
[2] = system: SK-BR-3; experiment: Cytotoxicity against human SK-BR-3 cells assessed as growth inhibition measured after 72 hrs by MTT assay; settings: SK-BR-3, 72 h
[3] = system: Jurkat; experiment: Cytotoxicity against human Jurkat cells assessed as growth inhibition measured after 72 hrs by MTT assay
[4] = system: HeLa; experiment: Cytotoxicity against human HeLa cells assessed as growth inhibition measured after 72 hrs by MTT assay
[5] = system: BJ; experiment: Cytotoxicity against human BJ cells assessed as growth inhibition measured after 72 hrs by MTT assay
[6] = system: SH-SY5Y; experiment: Cytotoxicity against human SH-SY5Y cells assessed as growth inhibition measured after 72 hrs by MTT assay
[7] = target: Bifunctional peptidase and (3S)-lysyl hydroxylase JMJD7 (Homo sapiens, UniProt P0C870); experiment: Inhibition of N-terminal His-tagged human JMJD7 (1 to 316 residues) expressed in Escherichia coli BL21 (DE3) luciferase based succinate-gloTM JmjC demethylase/hydroxylase assay
Chain of Bifunctional peptidase and (3S)-lysyl hydroxylase JMJD7 (P0C870 whole entry, the tested form may be a part): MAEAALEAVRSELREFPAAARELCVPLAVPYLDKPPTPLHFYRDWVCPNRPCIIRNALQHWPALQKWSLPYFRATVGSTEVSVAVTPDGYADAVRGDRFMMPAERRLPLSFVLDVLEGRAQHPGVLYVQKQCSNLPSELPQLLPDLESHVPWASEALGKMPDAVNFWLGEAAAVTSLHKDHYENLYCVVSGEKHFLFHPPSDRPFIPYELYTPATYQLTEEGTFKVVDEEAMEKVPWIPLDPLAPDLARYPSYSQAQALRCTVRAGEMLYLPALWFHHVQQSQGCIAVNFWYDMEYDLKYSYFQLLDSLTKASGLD

Question: With `O=C(Oc1ccc([N+](=O)[O-])c2cccnc12)c1ccc(Cl)cc1Cl` as the molecule, how does the IC50 [1] read?
Answer: 9.4 µM

Question: And the IC50 [2]?
Answer: 13.3 µM

Question: What about the IC50 [3] of the same molecule?
Answer: 15 µM

Question: And the IC50 [4]?
Answer: 16.1 µM

Question: What about the IC50 [5] of the same molecule?
Answer: > 100 µM

Question: And the IC50 [6]?
Answer: > 100 µM

Question: For `COc1ccc(CCC(=O)Nc2ccccc2C(=O)O)cc1OC`, which IC50 [7] is on record?
Answer: 33.2 µM

Question: How did the IC50 [7] turn out when `COc1cccc(-c2ccc(NC(=O)C3=C(C(=O)O)CCC3)c(F)c2)c1` [VIDOFLUDIMUS] was run?
Answer: 7.16 µM

Question: For `Oc1c(C(Nc2ccccn2)c2ccccc2)ccc2cccnc12` (stereo not given), which IC50 [7] is on record?
Answer: 31.6 µM

Question: `CCCNC(=O)c1ccc(-c2nc3ccccc3s2)s1` was tested. Which IC50 [7] did it give?
Answer: 11 µM
